Data taken from patent US7517517B2 (Janssen Pharmaceutica N.V., priority 2002, dated 2009).
Several values for one entry are separate records, joined by “and”; a condition that tells them apart may be missing. Equal entries are not always repeated. Structures can show the parent of a compound that is named as a salt. Where two headings read alike, the source gives them in different places.

Assays:
rat mGlu1a receptor [1] = target: T1, rat mGlu1a receptor (Rattus norvegicus, UniProt P23385); experiment: [3H]Compound A binding to rat mGlu1a receptor CHO-dhfr− membranes (saturation, kinetics, inhibition); conditions: for Ki: 2.5 nM [3H]Compound A, 30 min at 4° C.; for inhibition of [3H]Compound A binding (in words): rat mGlu1a receptor CHO-dhfr− membranes
T1 construct: host or cells: CHO-dhfr- cells

rat mGlu1a receptor [2] = target: T1, rat mGlu1a receptor; experiment: [3H]quisqualate binding to rat mGlu1a receptor CHO-dhfr− membranes (saturation, inhibition); conditions: rat mGlu1a receptor CHO-dhfr− membranes; for Hill coefficient / Ki: inhibition of [3H]quisqualate binding, mean ± SD of 2 experiments
[3] = target: T2, cloned rat mGlu1 receptor (Rattus norvegicus, UniProt P23385); experiment: Signal transduction at the cloned rat mGlu1 receptor in CHO cells (glutamate-induced Ca2+ rise, FLIPR); type: cell-based
T2 construct: expressed in transfected cells; host or cells: CHO cells

[4] = inhibition of glutamate-induced intracellular Ca2+ rise, CHO cells expressing mGlu1 receptor, compounds with pIC50 between 7 and 8
[5] = 50% inhibition of the glutamate-induced intracellular Ca2+ rise, CHO cells, FLIPR

T2 sequence (P23385 19-1199): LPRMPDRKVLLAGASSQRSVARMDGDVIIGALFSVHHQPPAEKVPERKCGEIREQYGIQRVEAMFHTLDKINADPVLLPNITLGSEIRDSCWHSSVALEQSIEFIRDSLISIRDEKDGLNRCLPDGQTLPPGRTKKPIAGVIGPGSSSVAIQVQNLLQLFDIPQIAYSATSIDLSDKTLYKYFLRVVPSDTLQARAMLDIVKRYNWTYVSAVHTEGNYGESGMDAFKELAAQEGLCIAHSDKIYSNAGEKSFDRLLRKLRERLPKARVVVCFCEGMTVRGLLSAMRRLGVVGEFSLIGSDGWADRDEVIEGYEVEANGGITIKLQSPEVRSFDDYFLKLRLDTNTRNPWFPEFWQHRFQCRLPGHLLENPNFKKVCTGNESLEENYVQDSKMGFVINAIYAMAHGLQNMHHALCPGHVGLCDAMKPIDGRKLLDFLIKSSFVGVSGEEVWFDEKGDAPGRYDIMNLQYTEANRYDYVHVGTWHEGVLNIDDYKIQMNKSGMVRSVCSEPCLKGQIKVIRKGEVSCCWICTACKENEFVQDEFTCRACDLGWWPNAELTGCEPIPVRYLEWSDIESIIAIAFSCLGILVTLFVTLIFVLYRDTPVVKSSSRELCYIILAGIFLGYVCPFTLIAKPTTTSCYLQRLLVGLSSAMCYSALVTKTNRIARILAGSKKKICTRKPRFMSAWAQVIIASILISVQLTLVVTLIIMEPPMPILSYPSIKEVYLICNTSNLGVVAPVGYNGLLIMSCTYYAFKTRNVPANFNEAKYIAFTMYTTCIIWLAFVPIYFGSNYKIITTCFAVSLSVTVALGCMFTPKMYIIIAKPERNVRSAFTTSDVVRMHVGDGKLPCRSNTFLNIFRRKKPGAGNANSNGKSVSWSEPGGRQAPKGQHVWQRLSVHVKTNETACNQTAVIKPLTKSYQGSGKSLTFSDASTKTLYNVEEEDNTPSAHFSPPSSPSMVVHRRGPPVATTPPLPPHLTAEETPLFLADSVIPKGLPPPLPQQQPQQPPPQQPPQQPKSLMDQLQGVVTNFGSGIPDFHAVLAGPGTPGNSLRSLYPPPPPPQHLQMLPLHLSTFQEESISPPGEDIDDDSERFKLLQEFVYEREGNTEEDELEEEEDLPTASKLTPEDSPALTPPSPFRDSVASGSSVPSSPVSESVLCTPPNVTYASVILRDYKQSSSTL
T1 sequence (P23385 19-1199): as above

melting point | IC50 [3, 4] [µM] | SMILES | also measured
114 °C | – | CCc1cc2cc(C(=O)[C@H]3CC[C@H](OC)CC3)ccc2nc1F [Compound 20] | –
136 °C | – | CCOC(=O)c1cc2cc(C(=O)Cc3ccccc3)ccc2nc1C [Compound 306] | –
112 °C | – | CCc1cc2cc(C(=O)C3CCC(OC)CC3)ccc2nc1-c1ccccc1 (stereo not shown) [Compound 29] | –
123 °C | – | CCc1cc2cc(C(=O)[C@H]3CC[C@@H](OC)CC3)ccc2nc1Cl [Compound 4] | –
185 °C | – | c1ccc2c(-c3ccc4nc5c(cc4c3)CCS5)noc2c1 [Compound 514] | –
142 °C | – | CCc1cc2cc(C(=O)C3CCC(OC)CC3)ccc2nc1-c1cccs1 (stereo not shown) [Compound 30] | –
113 °C | – | CCc1cc2cc(C(=O)C3CCC(OC)CC3)ccc2nc1-c1ccsc1 (stereo not shown) [Compound 31] | –
110 °C | – | CCc1cc2cc(C(=O)C3CCC(OC)CC3)ccc2nc1C (stereo not shown) [Compound 27] | pIC50 [3, 5]: 8.527
92 °C | – | CCc1cc2cc(C(=O)C3CCC(OC)CC3)ccc2nc1F (stereo not shown) [Compound 19] | –
110 °C | – | CCc1cc2cc(C(=O)[C@H]3CC[C@@H](OC)CC3)ccc2nc1I [Compound 21] | –
145 °C | – | CCc1cc2cc(C(=O)C3Cc4ccccc4C3)ccc2nc1Cl [Compound 3] | –
– | 0.0138 | O=C(Cc1ccc(F)cc1)c1ccc2nc3c(cc2c1)CCCS3 [Compound 483] | –
– | 0.0676 | CCc1cc2cc(C(=O)Cc3ccccc3OC)ccc2nc1C [Compound 236] | –
– | 0.0955 | CCc1cc2cc(C(=O)C3(c4ccccc4)CC3)ccc2nc1C [Compound 283] | –
– | 0.0692 | CCc1cc2cc(C(=O)[C@H]3CC[C@@H](OC)CC3)ccc2nc1NC(=O)c1ccc(=O)[nH]c1 [Compound 191] | –
– | 0.0513 | CCc1cc2cc(C(=O)CC3CCCCC34OCCO4)ccc2nc1Cl (stereo not shown) [Compound 243] | –
– | 0.0117 | COC1CCCC(C(=O)c2ccc3nc4c(cc3c2)CCCO4)C1 (stereo not shown) [Compound 440] | –
– | 0.055 | O=C(c1ccc2nc3c(cc2c1)CCCO3)C1CCc2ccccc2C1 (stereo not shown) [Compound 436] | –
– | 0.0245 | CC1CCC(C(=O)c2ccc3nc4c(cc3c2)CCS4)CC1 (stereo not shown) [Compound 431] | –
– | 0.0162 | CO[C@H]1CC[C@@H](C(=O)c2ccc3nc(C)ccc3c2)CC1 [Compound 238] | –
– | 0.0457 | O=C(CC1(F)CC2CCC1C2)c1ccc2nc3c(cc2c1)CCCO3 (stereo not shown) [Compound 482] | –
– | 0.0447 | CCCc1cc2cc(C(=O)[C@H]3CC[C@@H](OC)CC3)ccc2nc1Cl [Compound 291] | –
– | 0.0129 | COC1CCC(C(=O)c2ccc3nc4c(cc3c2)CCN4C)CC1 (stereo not shown) [Compound 423] | –
– | 0.0724 | O=C(c1ccc2nc3c(cc2c1)CCCO3)C1CC2CCC1O2 (stereo not shown) [Compound 457] | –
– | 0.0437 | COC1CCC(C(=O)c2ccc3nc4c(cc3c2)CCO4)CC1 (stereo not shown) [Compound 429] | IC50 [3, 5]: 0.00417 µM
– | 0.0646 | O=C(c1ccc2nc3c(cc2c1)CCCO3)C1COc2ccccc2O1 (stereo not shown) [Compound 438] | –

Continued, molecule first:

SMILES | melting point | IC50 [3, 4] [µM] | also measured
N[C@H](C(=O)O)c1ccc(C(=O)O)cc1 [(S)-4CPG, reference compound] | – | – | Ki (rat mGlu1a receptor [1]; mean ± SD of 3–4 experiments): > 1e+06 nM; inhibition of [3H]Compound A binding (in words) (rat mGlu1a receptor [1]): did not inhibit; Hill coefficient (rat mGlu1a receptor [2]): 0.98 ± 0.00; Ki (rat mGlu1a receptor [2]): 4.51 ± 0.78 µM
CCc1cc2cc(C(=O)C3CCC(OC)CC3)ccc2[nH]c1=O (stereo not shown) [Compound 9] | 226 °C | – | –
Cc1cc(C(=O)O)ccc1[C@H](N)C(=O)O [LY367385, reference compound] | – | – | Ki (rat mGlu1a receptor [1]; mean ± SD of 3–4 experiments): > 1e+06 nM; inhibition of [3H]Compound A binding (in words) (rat mGlu1a receptor [1]): did not inhibit; Hill coefficient (rat mGlu1a receptor [2]): 0.99 ± 0.01; Ki (rat mGlu1a receptor [2]): 1.18 ± 0.47 µM
NC1(C(=O)O)CCc2cc(C(=O)O)ccc21 (stereo not shown) [AIDA, reference compound] | – | – | Ki (rat mGlu1a receptor [1]; mean ± SD of 3–4 experiments): > 1e+06 nM; inhibition of [3H]Compound A binding (in words) (rat mGlu1a receptor [1]): did not inhibit; Hill coefficient (rat mGlu1a receptor [2]): 0.98 ± 0.03; Ki (rat mGlu1a receptor [2]): 98.3 ± 15.4 µM
CCc1cc2cc(C(=O)C3CCC(OC)CC3)ccc2nc1C#C[Si](C)(C)C (stereo not shown) [Compound 14] | 114 °C | – | IC50 [3]: 0.0631 µM
N[C@H](C(=O)O)c1ccc(C(=O)O)c(O)c1 [(S)-4C3HPG] | – | – | Ki (rat mGlu1a receptor [1]; mean ± SD of 3–4 experiments): > 1e+06 nM; Hill coefficient (rat mGlu1a receptor [2]): 0.98 ± 0.02; Ki (rat mGlu1a receptor [2]): 1.65 ± 0.06 µM
C#Cc1nc2ccc(C(=O)C3CCC(OC)CC3)cc2cc1CC (stereo not shown) [Compound 15] | 132 °C and 133 °C | 0.0117 | –
C=Cc1nc2ccc(C(=O)C3CCC(OC)CC3)cc2cc1CC (stereo not shown) [Compound 28] | 108 °C | – | –
O=C(NC12CC3CC(CC(C3)C1)C2)c1cnc2ccccc2n1 [NPS 2390, reference compound] | – | – | Ki (rat mGlu1a receptor [1]; mean ± SD of 3–4 experiments): 1.36 ± 0.5 nM; Hill coefficient (rat mGlu1a receptor [1]; inhibition of [3H]Compound A-binding, mean ± SD of 3–4 experiments): 0.97 ± 0.02; Ki (rat mGlu1a receptor [2]): > 1000 µM; effect on [3H]quisqualate binding (in words) (rat mGlu1a receptor [2]): did not affect
CCc1cc2cc(C(=O)CC(C)C)ccc2nc1Cl [Compound 2] | 82 °C | – | –
CCc1cc2cc(/C(=N\N)C3CCC(OC)CC3)ccc2nc1OC (stereo not shown) [Compound 53] | 110 °C | – | –
N[C@@H](Cn1oc(=O)[nH]c1=O)C(=O)O [quisqualate, reference compound] | – | – | inhibition of [3H]Compound A binding (in words) (rat mGlu1a receptor [1]): did not inhibit; Hill coefficient (rat mGlu1a receptor [2]): 0.98 ± 0.01
CCc1cc2cc(/C=C/c3ccccc3)ccc2nc1C [Compound 471] | 140 °C | – | –
CCc1cc2cc(C(=O)[C@H]3CC[C@@H](OC)CC3)ccc2nc1NCCOC [Compound 10] | 115 °C | – | –
CCc1cc2cc(-c3cc4ccccc4o3)ccc2nc1C [Compound 515] | 134 °C | – | –
CCc1cc2cc(C(=O)C3CCC(OC)CC3)ccc2nc1C(C)=O (stereo not shown) [Compound 6] | 108 °C | – | –
CCc1cc2cc(C(=O)[C@H]3CC[C@@H](OC)CC3)ccc2nc1C#N [Compound 22] | 138 °C | – | –
CCc1cnc2ccc(C(=O)C3CCC(OC)CC3)cc2c1 (stereo not shown) [Compound 25] | 88 °C | – | –
CCc1cc2cc(C(=O)C3CCC(OC)CC3)ccc2n2nnnc12 (stereo not shown) [Compound 35] | 160 °C | 0.0437 | –
Cc1cc2cc(C(=O)C3CCCCC3)ccc2[nH]c1=O [Compound 50, 6-(cyclohexylcarbonyl)-3-methyl-2(1H)-quinolinone] | 256.1 °C | – | –
CCc1cc2cc(-c3cc4c(o3)CCCC4)ccc2nc1C (as salt: HCl) [Compound 526] | 248 °C | – | –
CCc1cc2cc(C(=O)C3(F)CCC(OC)CC3)ccc2nc1Cl (single isomer, unassigned) [Compound 221] | – | 0.0617 | –
CCc1cc2cc(C(=O)C34CCC(CC3)C4)ccc2nc1C [Compound 300] | – | 0.0832 | –
N[C@H](C(=O)O)c1ccc(C(=O)O)c(O)c1 [(S)-4C-3HPG, reference compound] | – | – | inhibition of [3H]Compound A binding (in words) (rat mGlu1a receptor [1]): did not inhibit
CCc1cc2cc(C(=O)[C@H]3CC[C@H](OC)CC3)ccc2nc1C [Compound 131] | – | 0.0646 | –
CCCc1cc2cc(C(=O)C3CC4CCC3C4)ccc2nc1C (stereo not shown) [Compound 318] | – | 0.0955 | –
Cc1cc2nc3c(cc2cc1C(=O)Cc1ccccc1)CCCO3 [Compound 504] | – | – | IC50 [3, 5]: 0.00537 µM
CCc1cc2cc(C(=O)Cc3ccc(F)c(F)c3)ccc2nc1C [Compound 277] | – | 0.0363 | –
CCc1cc2cc(C(=O)C3CC4CC(O)C3C4)ccc2nc1Cl (stereo not shown) [Compound 281] | – | 0.0234 | –
CCc1cc2cc(C(=O)[C@H]3CC[C@@H](OC)CC3)ccc2nc1NC(=O)C1CCN(C(C)=O)CC1 [Compound 193] | – | 0.0617 | –
